Test results as given in patent US9512139B2, “Conformationally constrained, fully synthetic macrocyclic compounds” (POLYPHOR AG, priority 2009, dated 2016).
pEC50: −log10 of the molar value.

What was measured:
[1] = Metabolic stability assay, CD-1 mouse microsomes; format: in vitro ADME; conditions: CD-1, mouse, microsomes; for Metabolic Stability 60 min mouse [% remain.] / Metabolic Stability T½ [min] mouse: both, 10 µM; for Metabolic Stability 60 min mouse [% remain.]: 1 h
Motilin Receptor = target: T1, Motilin Receptor (Homo sapiens, UniProt O43193); experiment: Ca2+ assay (FLIPR) for the GPCR motilin receptor, agonist and antagonist mode; format: cell-based; conditions: antagonist mode
T1 construct: host or cells: Ca2+ optimized hematopoietic cell lines (rat)
T1 sequence (O43193 whole entry, species assumed): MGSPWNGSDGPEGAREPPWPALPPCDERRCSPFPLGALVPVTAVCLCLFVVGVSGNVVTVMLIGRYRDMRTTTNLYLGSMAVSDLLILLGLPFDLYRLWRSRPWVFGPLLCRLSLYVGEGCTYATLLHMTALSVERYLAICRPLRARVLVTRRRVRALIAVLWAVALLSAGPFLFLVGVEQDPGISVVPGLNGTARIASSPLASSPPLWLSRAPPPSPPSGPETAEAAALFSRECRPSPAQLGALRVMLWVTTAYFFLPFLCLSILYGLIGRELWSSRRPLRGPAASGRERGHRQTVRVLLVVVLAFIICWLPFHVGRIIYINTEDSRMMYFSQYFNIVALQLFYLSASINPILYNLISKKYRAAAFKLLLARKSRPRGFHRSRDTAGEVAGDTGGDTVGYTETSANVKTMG

in vitro [2] = format: in vitro ADME, human; conditions: human, plasma, 10 µM; for Plasma Stability 240 min hum [% remain.]: 4 h
[3] = target: T2, 5-hydroxytryptamine 2B (5-HT2B) Receptor (Homo sapiens, UniProt P41595); experiment: Ca2+ assay (FLIPR) for the GPCR 5-HT2B receptor, agonist and antagonist mode; format: cell-based
T2 construct: host or cells: Ca2+ optimized hematopoietic cell lines (rat)
T2 sequence (P41595 whole entry, species assumed): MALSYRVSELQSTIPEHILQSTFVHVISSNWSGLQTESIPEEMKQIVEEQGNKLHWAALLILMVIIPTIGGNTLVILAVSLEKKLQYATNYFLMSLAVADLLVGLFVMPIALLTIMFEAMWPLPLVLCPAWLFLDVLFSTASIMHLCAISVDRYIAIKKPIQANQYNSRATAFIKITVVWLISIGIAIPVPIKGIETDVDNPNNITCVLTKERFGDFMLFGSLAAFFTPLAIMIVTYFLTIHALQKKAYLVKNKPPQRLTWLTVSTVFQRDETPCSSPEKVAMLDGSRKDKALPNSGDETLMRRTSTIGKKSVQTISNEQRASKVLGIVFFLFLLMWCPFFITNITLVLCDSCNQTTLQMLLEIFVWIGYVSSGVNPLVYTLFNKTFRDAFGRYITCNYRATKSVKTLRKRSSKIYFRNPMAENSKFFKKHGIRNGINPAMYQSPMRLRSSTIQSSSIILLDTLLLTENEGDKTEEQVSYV
Method: Ca^2+ Assays for the GPCRs Motilin Receptor, Prostaglandin F (FP) Receptor, 5-hydroxytryptamine 2B (5-HT2B) Receptor, and Purinoreceptor P2Y1
Assays were performed using on a FLIPR^TETRA fluorometric imaging plate reader (Molecular Devices) with ScreenWorks Version 2 (Molecular Devices) as device operating and data analysis software.
Dose dependent agonist and antagonist activities were determined. Percentage activation and percentage inhibition values were determined.
Percentage activation was determined upon initial addition of the sample compounds followed by 10 minutes incubation at 25° C. Following compound incubation, reference agonists were added at EC80 to determine percentage inhibition.
Reference agonists were purchased from reputable commercial vendors and prepared according to each ligand's specifications. All handling of ligands were done to ensure proper control throughout the experiments.
Example compounds were weighed on a Microbalance (Mettler MX5) and dissolved in 100% DMSO to a final concentration of 2.5 mM and subsequently diluted into the assay buffer.
The Assay buffer was a supplemented HBSS (Hank's Balanced Salt Solution). HBSS was supplemented with 20 mM HEPES (4-(2-hydroxyethyl)-piperazin-1-ethansulfonic acid) and 2.5 mM Probenecid (Sigma P8761).
GPCR assays were performed using Ca^2+ optimized hematopoietic cell lines (rat) with cultures never exceeding 90% confluency. […] After seeding, the assay plates were incubated for forty-five (45) minutes at room temperature. After room temperature incubation, the assay plates were incubated at 37° C. 5% CO2 for 24 hours prior to assaying.
All GPCR assays were performed using Fluo-8 Ca^2+ dye. Ca^2+ dye was prepared at 1× dye concentration in GPCR assay buffer. After 24 hours of incubation, cells were washed with GPCR assay buffer, and then Ca^2+-dye (100 μL/well) was added.
The plates were incubated for 90 minutes at 30° C. 5% CO2 prior to FLIPR assay.
Compound plates were prepared to add 50 μL/well during the agonist assay mode. During the FLIPR assay, 50 μL/well from the compound plate was diluted 3-fold into the existing 100 μL/well from the dye loading step. Therefore all compounds were prepared as 3× the final concentration desired in the assay.
After completion of the first single addition assay run, assay plate was removed from the FLIPR Tetra and placed at 25° C. for seven (7) minutes before antagonist assay.
Using the EC80 values determined during the agonist assay, all pre-incubated sample compound and reference antagonist (if applicable) wells were stimulated at the EC80 of the reference agonist. As reference ligands for the first three assays their obvious natural ligands motilin, prostaglandin F2α, and serotonin (5-HT, 5-Hydroxytryptamine) were used; and for the P2Y1 assay 2MeSATP (2-methyl-thio-adeno-sine 5′-triphosphate, i.e. (2R,3S,4R)-5-(6-amino-2-methylsulfanyl-purin-9-yl)-3,4-dihydroxy-tetrahydrofuran-2-yl]methyl (hydroxy-phosphonooxy-phosphoryl)hydrogen phosphate) was applied.
After the addition of the reference agonist fluorescence was monitored for 180 sec using FLIPR Tetra.
Data Analysis and Results:
From the FLIPR data, with negative control correction enabled, the maximum statistic for each well was exported and percentage activation relative to Emax control was calculated.

in vitro [4] = format: in vitro ADME, mouse; conditions: both, CD-1, mouse, plasma, 10 µM; for Plasma Stability 240 min mouse [% remain.]: 4 h
[5] = target: T3, Prostaglandin F (FP) Receptor (Homo sapiens, UniProt P43088); experiment: Ca2+ assay (FLIPR) for the GPCR prostaglandin F (FP) receptor, agonist and antagonist mode; format: cell-based; conditions: 10 μM
T3 construct: host or cells: Ca2+ optimized hematopoietic cell lines (rat)
T3 sequence (P43088 whole entry): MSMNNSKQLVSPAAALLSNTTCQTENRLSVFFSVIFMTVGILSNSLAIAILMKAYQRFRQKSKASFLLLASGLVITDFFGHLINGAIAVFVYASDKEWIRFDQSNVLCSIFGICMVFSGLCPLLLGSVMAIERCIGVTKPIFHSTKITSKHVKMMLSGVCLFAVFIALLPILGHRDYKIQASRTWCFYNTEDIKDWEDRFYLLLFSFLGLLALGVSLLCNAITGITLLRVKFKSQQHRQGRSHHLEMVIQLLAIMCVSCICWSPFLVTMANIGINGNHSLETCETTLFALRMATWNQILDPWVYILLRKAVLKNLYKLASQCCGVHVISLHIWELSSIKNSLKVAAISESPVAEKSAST
Summary of the method: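 Ca2+-optimized rat hematopoietic cells carrying the receptor were loaded with Fluo-8 in HBSS/20 mM HEPES/2.5 mM probenecid and read on FLIPR. Agonist mode: 10 min compound incubation at 25 °C, % activation relative to Emax. Antagonist mode: stimulation at EC80 of the reference agonist (prostaglandin F2α for FP, 2MeSATP for P2Y1), fluorescence monitored 180 s.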

[6] = Metabolic stability assay, human microsomes; format: in vitro ADME; conditions: human, microsomes; for half-life at 10 µM: both sexes; for Metabolic Stability 60 min hum [% remain.] / Metabolic Stability T½ [min] hum: both, 10 µM; for Metabolic Stability 60 min hum [% remain.]: 1 h
[7] = Plasma stability assay, rat plasma (values in parentheses); format: in vitro ADME; conditions: value in parentheses
[8] = Metabolic stability assay, rat microsomes (values in parentheses); format: in vitro ADME; conditions: value in parentheses
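Wherever Plasma Stability 240 min mouse [% remain.] is given: sodium citrate stabilized mouse plasma, parent compound quantified by HPLC/MS/MS relative to its peak area at time zero, run in triplicate.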
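Wherever Plasma Stability T½ [min] mouse is given: sodium citrate stabilized mouse plasma, parent compound quantified by HPLC/MS/MS relative to its peak area at time zero, run in triplicate.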

| Compound | half-life at 10 µM ([1]; both sexes) [h] | Metabolic Stability 60 min mouse [% remain.] [1] [% remain.] | IC50 (Motilin Receptor) [µM] | inhibition at 10 µM (Motilin Receptor; at 10 μM) [%] | Plasma Stability T½ [min] hum (in vitro [2]) [min] | Plasma Stability 240 min hum [% remain.] (in vitro [2]) | pEC50 [3] | Agonist activity [% activation at 12.5 μM] [3] [%] | Plasma Stability T½ [min] mouse (in vitro [4]) [min] | Plasma Stability 240 min mouse [% remain.] (in vitro [4]) | inhibition at 10 µM [5] [%] | half-life at 10 µM [6] [h] | Metabolic Stability 60 min hum [% remain.] [6] [% remain.] | Metabolic Stability T½ [min] mouse [1] [min] | Plasma Stability 240 min (rat) [% remain.] [7] | Plasma Stability T½ [min] (rat) [7] | Metabolic Stability 60 min (rat) [% remain.] [8] [% remain.] | Metabolic Stability T½ [min] (rat) [8] | Metabolic Stability T½ [min] hum [6] [min] |
| --- | --- | --- | --- | --- | --- | --- | --- | --- | --- | --- | --- | --- | --- | --- | --- | --- | --- | --- | --- |
| CN1CC(=O)N2C[C@@H](NC(=O)Cc3c[nH]c4ccccc34)C[C@H]2COc2ccc(F)cc2C(=O)N(C)[C@H](C(=O)NCCc2c[nH]c3ccccc23)CCC1=O [Ex. 12, (2S,11S,19aS)-15-fluoro-2-{[2-(1H-indol-3-yl)acetyl]amino}-N-[2-(1H-indol-3-yl)ethyl]-7,12-dimethyl-5,8,13-trioxo-2,3,6,7,8,9,10,11,12,13, 19,19a-dodecahydro-1H,5H-pyrrolo[2,1-c] [1,4,7,12]benzoxatriazacyclopentadecine-11-carboxamide] | 0.583 | 33 | 2.7 | 95 | > 240 | 99 | 5.48 | 36 | > 240 | 100 | 44 | 0.283 | 7 | – | – | – | – | – | – |
| CC(=O)N[C@H]1C[C@H]2COc3ccc(F)cc3C(=O)N(C)[C@H](C(=O)NCCc3c[nH]c4ccccc34)CCC(=O)N(C)CC(=O)N2C1 [Ex. 9, (2S,11S,19aS)-2-(acetylamino)-15-fluoro-N-[2-(1H-indol-3-yl)ethyl]-7,12-dimethyl-5,8,13-trioxo-2,3,6,7,8,9,10,11,12,13,19,19a-dodecahydro-1H,5H-pyrrolo[2,1-c] [1,4,7,12]benzoxatriazacyclopentadecine-11-carboxamide] | – | 80 | – | – | > 240 | 99 | 4.92 | 48 | > 240 | 93 | – | 0.533 | 20 | > 60 | – | – | – | – | – |
| COCCNC(=O)[C@@H]1COCC(=O)N2C[C@@H](N3CCN(C)CC3)C[C@H]2COc2cccc(c2)C(=O)N1C [Ex. 377, (4S,6S,13S)-N-(2-methoxyethyl)-14-methyl-6-(4-methylpiperazino)-9,15-dioxo-2,11-dioxa-8,14-diazatricyclo[14.3.1.0^4,8]icosa-1(20),16,18-triene-13-carboxamide] | – | 86 | – | – | > 240 | 95 | – | – | – | – | – | – | 72 | > 60 | (100) % remain. | (240) min | 97 | 60 (60) min | > 60 |
| CN1CC(=O)N2C[C@@H](NC(=O)OC(C)(C)C)C[C@H]2COc2ccc(F)cc2C(=O)N(C)[C@H](C(=O)NCCc2c[nH]c3ccccc23)CCC1=O [Ex. 30, tert-butyl N-[(2S,11S,19aS)-15-fluoro-11-({[2-(1H-indol-3-yl)ethyl]amino}carbonyl)-7,12-dimethyl-5,8,13-trioxo-2,3,6,7,8,9,10,11,12,13,19,19a-dodecahydro-1H,5H-pyrrolo[2,1-c] [1,4,7,12]benzoxatriazacyclopentadecin-2-yl]carbamate] | – | 55 | – | – | > 240 | 85 | 5.48 | 48 | > 240 | 100 | – | 0.367 | 2 | > 60 | – | – | – | – | – |
| CN(C)CC(=O)N[C@H]1C[C@H]2COc3ccc(F)cc3C(=O)N(C)[C@H](C(=O)NCCc3c[nH]c4ccccc34)CCC(=O)N(C)CC(=O)N2C1 [Ex. 16, (2S,11S,19aS)-2-{[2-(dimethylamino)acetyl]amino}-15-fluoro-N-[2-(1H-indol-3-yl)ethyl]-7,12-dimethyl-5,8,13-trioxo-2,3,6,7,8,9,10,11, 12,13,19,19a-dodecahydro-1H,5H-pyrrolo [2,1-c] [1,4,7,12]benzoxatriazacyclopentadecine-11-carboxamide] | – | 79 | – | – | > 240 | 95 | 5.18 | 45 | > 240 | 97 | – | 0.633 | 31 | > 60 | – | – | – | – | – |
| CN1C(=O)c2cccc(c2)OC[C@@H]2C[C@H](N)CN2C(=O)COC[C@H]1C(=O)NCc1ccc2ccccc2c1 [Ex. 368, (4S,6S,13S)-6-amino-14-methyl-N-(2-naphthylmethyl)-9,15-dioxo-2,11-dioxa-8,14-diazatricyclo[14.3.1.0^4,8]icosa-1(20),16,18-triene-13-carboxamide] | – | 82 | – | – | > 240 | 72 | – | – | – | – | – | – | 83 | > 60 | (100) % remain. | (240) min | 98 | 60 (60) min | > 60 |
| CN1C(=O)c2cccc(c2)OC[C@@H]2C[C@H](NC(=O)CCc3ccncc3)CN2C(=O)COC[C@H]1C(=O)NCc1ccc2ccccc2c1 [Ex. 372, (4S,6S,13S)-14-methyl-N-(2-naphthylmethyl)-9,15-dioxo-6-{[3-(4-pyridinyl)propanoyl]amino}-2,11-dioxa-8,14-diazatricyclo[14.3.1.0^4,8]icosa-1(20),16,18-triene-13-carboxamide] | – | 73 | – | – | > 240 | 68 | – | – | – | – | – | 0.767 | 43 | > 60 | (100) % remain. | (240) min | 72 | 60 (60) min | – |
